Data reported in BindingDB's records for doi:10.1016/j.bmcl.2017.11.013 (Csir-Indian Institute of Integrative Medicine, 2017).

Legend:
[1] = Inhibition of human CYP1B1 expressed in MDA-MB-468 cells assessed as potentiation of cisplatin-induced cytotoxicity by measuring cisplatin EC50 at 20 uM (Rvb = 6.70+/- 0.7 uM)
[2] = Inhibition of human CYP1B1 expressed in MDA-MB-468 cells assessed as potentiation of cisplatin-induced cytotoxicity by measuring cisplatin EC50 at 6.6 uM (Rvb = 6.70+/- 0.7 uM)
[3] = Inhibition of human CYP1A1 transfected in HEK293 cells assessed as protection against CYP1A1 mediated B[a]P toxicity by measuring B[a]P EC50 at 20 uM by MTT assay (Rvb =1.2+/- 0.3 uM)

SMILES | EC50 [1] [µM] | EC50 [2] [µM] | EC50 [3] [µM]
O=c1cc(-c2ccccc2)oc2c1ccc1ccccc12 | 5.1 | – | –
O=c1c(O)c(-c2ccc(O)c(O)c2)oc2cc(O)cc(O)c12 [2-(3,4-dihydroxyphenyl)-3,5,7-trihydroxy-chromone;hydrate] | – | 1.1 | 8.8
CC(C)=CCc1cc(C2CC(=O)c3ccc(O)c(CC=C(C)C)c3O2)ccc1O (stereo not given) | 5.2 | – | 2.3
